How the values were obtained:
Assay in all cases: CDK Kinase Inhibition Assay
Settings in all cases: 25 °C
[1] = target: Cyclin-dependent kinase 2/G1/S-specific cyclin-E1 (Homo sapiens, UniProt P24941)
[2] = target: cAMP-dependent protein kinase catalytic subunit alpha (Bos taurus, UniProt P00517)
[3] = target: Calcium/calmodulin-dependent protein kinase type II subunit alpha (Rattus norvegicus, UniProt P11275)
Calcium/calmodulin-dependent protein kinase type II subunit alpha, sequence (P11275 whole entry): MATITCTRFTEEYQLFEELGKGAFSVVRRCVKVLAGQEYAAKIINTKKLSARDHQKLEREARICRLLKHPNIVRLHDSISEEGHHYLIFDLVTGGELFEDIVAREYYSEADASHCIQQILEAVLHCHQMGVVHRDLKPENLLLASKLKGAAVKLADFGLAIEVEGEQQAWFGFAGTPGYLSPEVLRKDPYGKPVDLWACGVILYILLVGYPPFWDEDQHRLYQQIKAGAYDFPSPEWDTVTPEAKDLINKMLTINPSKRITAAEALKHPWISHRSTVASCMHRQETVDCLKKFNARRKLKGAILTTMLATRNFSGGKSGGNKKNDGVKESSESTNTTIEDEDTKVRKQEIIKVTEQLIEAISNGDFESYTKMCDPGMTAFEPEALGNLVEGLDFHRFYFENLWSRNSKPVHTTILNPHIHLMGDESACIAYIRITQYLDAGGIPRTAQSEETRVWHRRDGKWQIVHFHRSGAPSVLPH

Compound `COc1ccc2c3c4c(c5c(ccc6ccn(C)c65)c3n(CCCN3CCC(O)CC3)c2c1)C(=O)NC4=O` [3-[3-(4-hydroxypiperidin-1-yl)propyl]-6-methoxy-18-methyl-3,13,18-triazahexacyclo[14.7.0.0^{2,10}.0^{4,9}.0^{11,15}.0^{17,21}]tricosa-1(16),2(10),4(9),5,7,11(15),17(21),19,22-nonaene-12,14-dione] has an IC50 [1] of 2.1 µM.

`CCc1ccc2c(c1)[nH]c1c3ccc4ccn(C)c4c3c3c(c21)C(=O)NC3=O` [6-ethyl-18-methyl-3,13,18-triazahexacyclo[14.7.0.0^{2,10}.0^{4,9}.0^{11,15}.0^{17,21}]tricosa-1(16),2(10),4(9),5,7,11(15),17(21),19,22-nonaene-12,14-dione] was tested, and the IC50 [2] was greater than 20 µM and the IC50 [1] was 0.36 µM.

Work on `COc1ccc2c3c4c(c5c(ccc6ccn(C)c65)c3n(CCN3CCCCC3)c2c1)C(=O)NC4=O` [6-methoxy-18-methyl-3-[2-(piperidin-1-yl)ethyl]-3,13,18-triazahexacyclo[14.7.0.0^{2,10}.0^{4,9}.0^{11,15}.0^{17,21}]tricosa-1(16),2(10),4(9),5,7,11(15),17(21),19,22-nonaene-12,14-dione] yielded an IC50 [2] greater than 20 µM and an IC50 [3] greater than 20 µM.

`COc1ccc2c3c4c(c5c(ccc6ccn(C)c65)c3n(CCCN3CCOCC3)c2c1)C(=O)NC4=O` [6-methoxy-18-methyl-3-[3-(morpholin-4-yl)propyl]-3,13,18-triazahexacyclo[14.7.0.0^{2,10}.0^{4,9}.0^{11,15}.0^{17,21}]tricosa-1(16),2(10),4(9),5,7,11(15),17(21),19,22-nonaene-12,14-dione] gave an IC50 [2] greater than 20 µM and an IC50 [3] greater than 20 µM.

For `COc1ccc2c3c4c(c5c(ccc6ccn(C)c65)c3n(CCCN3CCSCC3)c2c1)C(=O)NC4=O` [6-methoxy-18-methyl-3-[3-(thiomorpholin-4-yl)propyl]-3,13,18-triazahexacyclo[14.7.0.0^{2,10}.0^{4,9}.0^{11,15}.0^{17,21}]tricosa-1(16),2(10),4(9),5,7,11(15),17(21),19,22-nonaene-12,14-dione], the IC50 [2] was greater than 20 µM and the IC50 [3] was greater than 20 µM.

Compound `COC(=O)C1CCN(CCc2cccc3c2[nH]c2c4ccc5ccn(C)c5c4c4c(c32)C(=O)NC4=O)CC1` [methyl 1-(2-{18-methyl-12,14-dioxo-3,13,18-triazahexacyclo[14.7.0.0^{2,10}.0^{4,9}.0^{11,15}.0^{17,21}]tricosa-1(16),2(10),4(9),5,7,11(15),17(21),19,22-nonaen-5-yl}ethyl)piperidine-4-carboxylate] has an IC50 [2] greater than 20 µM.

Source: BindingDB's records for doi:10.1016/s0960-894x(03)00461-x (Eli Lilly, 2003)
